# According to PubChem BioAssay (NCI):
# Several values for one entry are separate records, joined by “and”; a condition that tells them apart may be missing. Identical values can stand only once.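 A five-concentration, 48-hour dose response in 96-well plates underlies each endpoint, interpolated linearly between surrounding concentrations. GI50 marks 50% less growth. Definition used: TGI = concentration required for complete inhibition of growth.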
# Columns and labels:
# Test in all cases: NCI-60 cell line screen, 48 h
# [1] = system: SNB-19 CNS
# [2] = system: SK-OV-3 ovarian
# [3] = system: HCT-15 colon
# [4] = system: TK-10 renal
# [5] = system: T-47D breast
# [6] = system: SF-295 CNS
# [7] = system: HOP-62 NSCLC
# [8] = system: UACC-62 melanoma
# [9] = system: MALME-3M melanoma
# [10] = system: 786-0 renal
SMILES,GI50 [1],TGI [1],GI50 [2] [µM],TGI [2],GI50 [3],TGI [3],GI50 [4] [µM],TGI [4],GI50 [5] [µM],TGI [5],GI50 [6] [µM],TGI [6],GI50 [7] [µM],TGI [7],GI50 [8] [µM],TGI [8],GI50 [9],TGI [9],GI50 [10] [µM],TGI [10]
Oc1cc(O)c2c(=S)cc(-c3ccc(Cl)cc3)oc2c1,3.68 µM,16.3 µM,2.77,18.2 µM,0.397 µM,11.9 µM,4.08,19.1 µM,0.0304,0.547 µM,5.67,22.9 µM,2.03,11.2 µM,3.01,14.2 µM,2.01 µM,6.71 µM,7.12,22.9 µM
COC(=O)c1ccc([N+](=O)[O-])c(O)c1,,> 100 µM,,> 100 µM,,> 100 µM,,> 100 µM,,> 100 µM,,> 100 µM,,> 100 µM,,> 100 µM,,> 100 µM,,> 100 µM
CC(=O)OC1CCC2(C)C(=CCC3C2CCC2(C)C(C(C)C(=O)O)CCC32)C1 (stereo not given),,> 100 µM,,> 100 µM,,> 100 µM,,> 100 µM,,> 100 µM,,> 100 µM,,> 100 µM,,> 100 µM,,> 100 µM,,> 100 µM
O=S1(=O)CS(=O)(=O)OCCCO1,,> 100 µM,,> 100 µM,,> 100 µM,,> 100 µM,,> 100 µM,,> 100 µM,,> 100 µM,,> 100 µM,,> 100 µM,,> 100 µM
N#CN1CCC[C@H]1C(=O)N1CCc2c(-c3[nH]nc4ncccc34)cccc21,0.157 µM,21.5 µM,0.013,0.0694 µM,< 0.01 µM,11.3 µM,0.525,4.17 µM,0.0227,15 µM,0.281,4.41 µM,0.0222,10.6 µM,< 0.01,12.2 µM,0.0279 µM,16.7 µM,< 0.01,11.5 µM
CC(=O)OCC1OC(OC2=C(CC=C(Cl)Cl)C(=O)c3ccccc3C2=O)C(OC(C)=O)C(OC(C)=O)C1OC(C)=O (stereo not given),11.8 µM,24.8 µM,15.1,28.7 µM,3.64 µM,21.3 µM,9.61,21.5 µM,1.99,5.41 µM,16.3,31.4 µM,18.5,34.4 µM,2.85,11.2 µM,2.66 µM,5.83 µM,16.6,31.8 µM
CCC1CC(=O)N(SCC(N)C(=O)O)C1=O (stereo not given),,> 100 µM,,> 100 µM,,> 100 µM,,> 100 µM,,> 100 µM,,> 100 µM,,> 100 µM,,> 100 µM,,> 100 µM,,> 100 µM
OC(COc1cccc2ccccc12)CN1CCN(c2ccccc2)CC1 (stereo not given),15.8 µM,30.7 µM,17,32.4 µM,18.8 µM,35.7 µM,13.6,26.9 µM,17.3,34.7 µM,12.6,26.6 µM,13.4,26.8 µM,14.1,28.5 µM,15.3 µM,31.4 µM,17.4,32.2 µM
O=C1/C(=C/c2ccccc2)CCC/C1=C\c1ccccc1,6 µM and 12.2 µM,10.9 µM and 29 µM and 31 µM,6.28,12 µM and 43.1 µM and 46.7 µM,5.91 µM and 6.43 µM,11.9 µM and 31.7 µM and 43.8 µM,6.12,11.9 µM and 33.2 µM and 40 µM,15.1,11.6 µM and 38.6 µM,7.49,13.6 µM and 26.5 µM,7.64,13.6 µM and 40 µM and 41.1 µM,6.34,11.5 µM and 28.4 µM and 29.9 µM,6.54 µM and 21 µM,11.9 µM and 33.3 µM and 59.7 µM,6.62,11.9 µM and 25.9 µM and 27.1 µM
O=C(c1cccs1)c1c(C(F)(F)F)n([O-])c2ccc(F)cc2[n+]1=O,1.38 µM,2.86 µM,1.85,3.59 µM,0.435 µM,1.64 µM,1.41,3.06 µM,0.69,3.23 µM,1.76,3.58 µM,1.58,3.13 µM,1.41,2.81 µM,0.669 µM,2.25 µM,1.32,2.74 µM
N#Cc1c(NC(=O)CN2CCOCC2)sc2c1CCCC2,> 25 µM,> 25 µM,> 25,> 25 µM,> 25 µM,> 25 µM,> 25,> 25 µM,> 25,> 25 µM,> 25,> 25 µM,> 25,> 25 µM,> 25,> 25 µM,> 25 µM,> 25 µM,> 25,> 25 µM
COc1cc(C2CC(c3cc(C)ccc3C)=NN2c2ccc(S(=O)(=O)NC(=O)NCc3ccccc3)cc2)cc(OC)c1OC (stereo not given),3.75 µM,43.8 µM,4.98,18.4 µM,3.18 µM,> 100 µM,4.74,31 µM,4.19,30.1 µM,,,4.3,37.1 µM,1.98,4.48 µM,3.48 µM,9.61 µM,3.79,23.5 µM
C/C(=C\CCc1ccoc1)CC/C=C(\C)CCCN1CCC(CO)CC1,4.61 µM,19.4 µM,6.94,20 µM,3.07 µM,12 µM,2.41,6.54 µM,2.51,8.92 µM,2.28,5.41 µM,3.39,9.6 µM,1.77,3.74 µM,1.79 µM,3.52 µM,2.35,5.37 µM
COc1cc([C@@H]2c3cc4c(cc3[C@H](O)[C@H]3COC(=O)[C@H]23)OCO4)cc(OC)c1OC,< 0.01 µM,> 100 µM and 50 µM,< 0.01,,< 0.005 µM,> 100 µM and 50 µM,< 0.005,> 100 µM and 50 µM,> 84.5,> 100 µM and 34.1 µM,< 0.01,,< 0.005,> 100 µM and 50 µM and > 75 µM,< 0.01,> 100 µM and 34.7 µM,,> 100 µM and 50 µM,< 0.005,1.08 µM and 0.5 µM and < 0.215 µM
